Experimental data: US5807729A, “Metalloprotease having increased activity” (Novo Nordisk A/S, priority 1995, dated 1998)
Where two headings read alike, the source gives them in different places. Square brackets hold non-standard residues; d marks the D form. Peptide text beside a SMILES is read from it. pGlu = O=C1CC[C@@H](C(=O)O)N1

Columns and labels:
[1] = target: neutral metalloprotease from Bacillus stearothermophilus (Bacillus stearothermophilus); assay: enzyme inhibition, kinetic analysis of B.s. thermolysin activity
p45 Metalloprotease [2] = target: T1, p45 Metalloprotease (Fusarium oxysporum, UniProt M1UZ70); assay: Influence of heavy metal additions on p45 metalloprotease activity (FTC-casein); format: biochemical; design: precursor 632 aa (18 signal, 226 pro); native or A. oryzae-expressed with same N-terminus; details: CoCl2 0-4 mM, p45 0.9 ug
Description: Samples are incubated at room temperature for 30 minutes.
It is interesting that substoichiometric levels of Zn are found after metal analysis (ICP) of the p45 metalloprotease. It appears that zinc levels are only 5% of that expected based on the level of p45 metalloprotease in the sample. No other heavy metal (i.e. Cd, Cr, Co, Cu, Mo, Ni, Li, […], Fe, Mn, As, Pb, or Se) is present in the p45 maturase sample.

p45 Metalloprotease [3] = target: T1, p45 Metalloprotease; assay: Inhibitor analysis of the p45 metalloprotease; format: biochemical; design: precursor 632 aa (18 signal, 226 pro); native or A. oryzae-expressed with same N-terminus
Description: (§1) Other metalloprotease inhibitors are utilized to further differentiate the p45 metalloprotease from the Bacillus thermolysins. Inhibition constants for 1,10-phenanthroline, phosphoramidon, and CdCl2 are determined to be 130 uM, 1 uM, and 67 uM against the p45 Metalloprotease (Table 3). Inhibition constants for 1,10-phenanthroline, phosphoramidon, and CdCl2 are 85 uM, 26 uM, and 2 uM against the Bacillus stearothermophilus thermolysin. […] It is of interest to note that phophoramidon is an effective inhibitor of many bacterial metallo-endopeptidases but few of mammalian origin. Also, it is interesting that CdCl2 is found to be such an effective inhibitor of metalloproteases. No evidence of CdCl2 inhibition of metalloproteases has been found in the literature.

p45 Metalloprotease [4] = target: T1, p45 Metalloprotease; assay: Effect of the pentapeptide on processing of pro-trypsin-like protease by p45; format: biochemical; design: precursor 632 aa (18 signal, 226 pro); native or A. oryzae-expressed with same N-terminus; details: 45-minute pre-incubation at room temperature
Description: After a 45-minute pre-incubation at room temperature with gentle shaking, the mixtures are diluted 500-fold and assayed for trypsin-like F. oxysporum protease activity.

[5] = target: Bacillus stearothermophilus thermolysin; assay: Inhibitor analysis of B.s. thermolysin; format: biochemical; details: for Ki: read-out: Inhibition Constant (Ki), B.s. Thermolysin
Description: as §1

[6] = target: T2, trypsin-like Fusarium oxysporum protease (Fusarium oxysporum, UniProt P35049); assay: Effect of 1,10-phenanthroline on tryptic activity (L-BAPNA); format: biochemical; details: 1,10-phenanthroline 1 mM
T2 construct: the metalloprotease cleaves recombinant pro-trypsin-like Fusarium oxysporum protease disclosed, supra to yield the active tryptic protease; made in house; host or cells: Aspergillus oryzae (IFO 4177), plasmid pSX183
Description: (§2) Metalloprotease activity is measured as released trypsin activity from pro-trypsin-like Fusarium oxysporum protease deposited at the Deutsche Sammlung von Mikroorganismen, Gottingen, Germany under the number DSM 2672, after a 30-60 min pre-incubation at 25° C. in 0.1M Tris, 2 mM CaCl2, pH 7 (at lower pH, 100 mM borate, 10 mM DMG, 2 mM CaCl2 is used).
(§3) However, when combined the metalloprotease cleaves recombinant pro-trypsin-like Fusarium oxysporum protease disclosed, supra to yield the active tryptic protease. Metalloprotease activity is halted upon the addition of 1 mM 1,10-phenanthroline (Table 1).

[7] = test system: Fusarium oxysporum metalloprotease; assay: Inhibition of Fusarium metalloprotease with 1,10-phenanthroline / EDTA and reactivation with Zn2+; format: biochemical; details: inhibitor 1 mM
Description: as §2
(§4) Metalloproteases contain a catalytic zinc metal center which participates in the hydrolysis of the peptide backbone. The active zinc center differentiates these proteases from calpains whose activities are dependent upon the presence of calcium. Confirmation of a protease as a metallo-protease is loss of proteolytic activity accomplished by removal of the zinc center with 1,10-phenanthroline (1 mM) followed by titration with Zn^2+ (0.1-100 μM) to restore full activity.
as §3

[8] = target: trypsin-like F. oxysporum protease (Fusarium oxysporum, UniProt P35049); details: 2M NaCl; FIG. 11
p45 Metalloprotease [9] = target: T1, p45 Metalloprotease; details: 1M NaCl; FIG. 11
bacterial thermolysins = details: 1M NaCl
Description: FTC-casein (20 microliters, 0.5% w/w in 50 mM Tris-Cl, pH 7.2), NaCl (0-2M) in trypsin-like F. oxysporum protease sample buffer, and either trypsin-like F. oxysporum protease (10 microliters, 1.8 ug) or p45 metalloprotease (10 microliters, 0.33 ug) are added to trypsin-like F. oxysporum protease sample buffer to a total volume of 50 microliters. Samples are incubated at room temperature for 30 minutes. At the end of the incubation, 150 microliters of 5% (w/v) trichloroacetic acid is added and the samples are allowed to precipitate for 60 minutes at 4° C. Samples are subsequently centrifuged (14,000 rpm, 5 minutes) and 30 microliters of supernatant are added to 3 ml of 0.5M sodium borate, pH 9.
The fluorescence of the samples is measured (Perkin-Elmer fluorimeter) using a 2.5 nm slit width, excitation at 490 nm and emission detected at 525 nm.

FTC-labeled casein [10] = details: scale: fold
[11] = test system: pro-trypsin-like Fusarium oxysporum protease; assay: Proteolytic enzyme assay: tryptic activity released from pro-trypsin-like protease, L-BAPNA, 405 nm; format: biochemical
Description: as §2, §4, §3

FTC-labeled casein [12] = assay: pH profile, FTC-casein hydrolysis; format: biochemical
Description: Purified p45 metalloprotease (10 microliters, 0.005 mg/ml) is added to 30 microliters of Universal pH buffer (pH 5-11.5), and 20 microliters of FTC-labeled casein are incubated at 37° C. for 1-hour. 150 microliters of 5% TCA is added to acidify and precipitate casein (1-hour at room temperature). […] Samples are then analyzed on the fluorimeter (slit width=2.5 nm; excitation freq.=490 nm; emission freq.=525 nm; integration time=2 sec).

[13] = target: T3, p45 metalloprotease from Fusarium oxysporum (Fusarium oxysporum); assay: enzyme inhibition, kinetic analysis of p45 activity
T3 chain: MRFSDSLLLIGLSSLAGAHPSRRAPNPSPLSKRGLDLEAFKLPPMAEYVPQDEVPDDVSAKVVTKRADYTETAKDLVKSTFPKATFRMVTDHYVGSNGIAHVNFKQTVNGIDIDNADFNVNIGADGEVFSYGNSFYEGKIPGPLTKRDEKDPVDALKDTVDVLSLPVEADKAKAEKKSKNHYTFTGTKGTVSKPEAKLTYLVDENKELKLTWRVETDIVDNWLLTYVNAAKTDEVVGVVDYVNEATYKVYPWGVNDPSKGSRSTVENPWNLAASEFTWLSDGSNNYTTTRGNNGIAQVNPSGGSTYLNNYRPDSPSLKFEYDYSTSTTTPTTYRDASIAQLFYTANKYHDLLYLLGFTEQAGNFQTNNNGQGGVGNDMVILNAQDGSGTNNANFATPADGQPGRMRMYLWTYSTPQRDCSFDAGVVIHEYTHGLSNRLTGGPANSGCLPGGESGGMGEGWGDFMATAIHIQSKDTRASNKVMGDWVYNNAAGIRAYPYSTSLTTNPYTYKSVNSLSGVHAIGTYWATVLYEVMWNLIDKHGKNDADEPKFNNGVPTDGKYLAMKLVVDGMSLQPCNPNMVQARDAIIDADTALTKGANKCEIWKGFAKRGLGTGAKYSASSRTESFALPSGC

For “synthetic pentapeptide pyroGlu-Glu-Ile-Pro-Asn-COOH”, the Ki [1] was > 5000 µM.

For `[Cl-].[Cl-].[Co+2]` [CoCl2], the “enhancement of p45 metalloprotease activity” value (p45 Metalloprotease [2]) was “no enhanced activity”.

`CC[C@H](C)[C@H](NC(=O)[C@H](CCC(=O)O)NC(=O)[C@@H]1CCC(=O)N1)C(=O)N1CCC[C@H]1C(=O)N[C@@H](CC(N)=O)C(=O)O` [<E-E-I-P-N, pyroGlu-Glu-Ile-Pro-Asn-COOH] ([pGlu]EIPN-OH) was tested, and the Ki (p45 Metalloprotease [3]) was > 5000 µM, the “effect of the pentapeptide on p45 metalloprotease activity” value (p45 Metalloprotease [4]) was “not an inhibitor of p45 metalloprotease activity” and the Ki ([5]; no effect) was > 5000 µM.

For `c1cnc2c(c1)ccc1cccnc12` [1,10-phenanthroline], the Ki (p45 Metalloprotease [3]) was 130 µM, the “type of inhibition, p45 Maturase” value (p45 Metalloprotease [3]; kinetic analysis) was “Noncompetitive” and the “inhibition of trypsin-like protease” value [6] was “not inhibited”. For the same molecule, the “metalloprotease activity upon addition of the inhibitor” value [7] was “halted”, the “type of inhibition, B.s. Thermolysin” value ([5]; kinetic analysis) was “Noncompetitive” and the Ki [5] was 85 µM.

For `[Cl-].[Na+]` [NaCl], the “inhibition of trypsin-like F. oxysporum protease activity” value [8] was 25%, the “inhibition of p45 metalloprotease activity” value (p45 Metalloprotease [9]) was 85% and the “inhibition of bacterial thermolysins” value (bacterial thermolysins) was 38%.

B1: trypsin-like Fusarium oxysporum protease (enzyme)
chain: IVGGTSASAGDFPFIVSISRNGGPWCGGSLLNANTVLTAAHCVSGYAQSGFQIRAGSLSRTSGGITSSLSSVRVHPSYSGNNNDLAILKLSTSIPSGGNIGYARLAASGSDPVAGSSATVAGWGATSEGGSSTPVNLLKVTVPIVSRATCRAQYGTSAITNQMFCAGVSSGGKDSCQGDSGGPIVDSSNTLIGAVSWGNGCARPNYSGVYASVGALRSFIDTYA
In the case of B1, the hydrolysis of FTC-casein at pH 9 (FTC-labeled casein [10]) is reported as 16, the “Tryptic Activity” value ([11]; with 1,10-phenanthroline (1 mM), without Zn2+) is reported as 33.8 Δ Abs/min × 10^-4 and the Tryptic Activity ([11]; with inhibitor (1,10-phenanthroline) addition) is reported as 33.8×10^-4 ΔAbs/min. The “Tryptic Activity” value ([11]; without 1,10-phenanthroline, without Zn2+) was 34.0 Δ Abs/min × 10^-4, the Tryptic Activity ([11]; without inhibitor addition) was 34.0×10^-4 ΔAbs/min and the “pH at which the protease functions optimally” value (FTC-labeled casein [12]) was ~9.5.

B2: synthetic pentapeptide pyroGlu-Glu-Ile-Pro-Asn-COOH (peptide)
peptide: [pGlu]EIPN-OH
SMILES: CC[C@H](C)[C@H](NC(=O)[C@H](CCC(=O)O)NC(=O)[C@@H]1CCC(=O)N1)C(=O)N1CCC[C@H]1C(=O)N[C@@H](CC(N)=O)C(=O)O
For B2, the Ki [13] was > 5000 µM.
